Data set [1] is described as follows: Study of weight change and food consumption in rats. In kind it is in vivo, SD (Sprague Dawley) rats. As to conditions: SD rats, subcutaneous, 10 nmol/kg; for Effect on reducing food intake: accumulated food intake recorded every 24 hours (FIGs. 7 and 9); for Effect on reducing body weight: recorded every 24 hours (FIGs. 6 and 8). The text has this: SD (Sprague Dawley) rats weighing 200-250 g were used for this study. The rats were received at least 10-14 days before the study began such that they could accommodate to the experimental environment. After arrival, they were exposed to a reversed light/dark cycle (i.e., lights switched off in daytime and on in nighttime) for two weeks and were individually housed for the first week so as to ensure high data accuracy and test sensitivity. Throughout the acclimation and experiment period, the rats had free access to food and water. 5-8 rats were assigned to each testing group for the derivatives and were subcutaneously administered the derivatives at a dose of 10 nmol/kg or a vehicle, and the dosing timepoint was recorded for each group. After dosing, the rats were put back into cages where they were housed and could have access to food and water. Food consumption and weight change of the rats were recorded online or manually every 24 hours.

Data set [2] is described as follows: Heat accelerated stability assay under a neutral condition. As to conditions: pH about 7.4, 40°C; for Concentration change (7d-0d)/%: Day 7 vs Day 0, reversed phase chromatography; for Purity Change% (7d-0d) / Purity Change% (26d-0d): purity from reversed phase chromatography-214 nm; for Purity Change% (7d-0d): Day 7 vs Day 0; for Purity Change% (26d-0d): Day 26 vs Day 0. The data set is classed as physicochemical. Summed up: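 Peptide (1 mg/mL) with sodium dihydrogen phosphate (1.42 mg/mL) in water, pH ~7.4, was sterile-filtered and stored at 40 °C, sampled on days 7 and 26. After centrifugation, concentration and purity (target/total peak area) were measured by reversed-phase HPLC at 214 and 280 nm, water/0.05% TFA to acetonitrile gradient, 25 °C column.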

Data set [3] addresses T1, human amylin receptors (Homo sapiens, UniProt O60896+P30988).
T1 sequence (P30988 25-474): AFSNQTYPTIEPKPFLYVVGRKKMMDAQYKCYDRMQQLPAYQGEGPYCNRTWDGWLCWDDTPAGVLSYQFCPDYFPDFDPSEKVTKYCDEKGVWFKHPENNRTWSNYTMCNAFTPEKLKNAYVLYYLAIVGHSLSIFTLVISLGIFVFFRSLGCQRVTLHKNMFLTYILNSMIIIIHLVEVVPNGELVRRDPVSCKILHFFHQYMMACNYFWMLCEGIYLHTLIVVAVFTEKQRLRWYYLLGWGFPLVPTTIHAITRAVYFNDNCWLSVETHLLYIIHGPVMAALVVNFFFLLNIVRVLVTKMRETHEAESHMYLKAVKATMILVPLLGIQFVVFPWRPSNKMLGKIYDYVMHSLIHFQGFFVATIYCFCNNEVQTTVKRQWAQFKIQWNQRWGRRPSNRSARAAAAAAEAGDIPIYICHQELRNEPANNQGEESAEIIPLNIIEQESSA
T1 sequence (O60896 24-148 partner): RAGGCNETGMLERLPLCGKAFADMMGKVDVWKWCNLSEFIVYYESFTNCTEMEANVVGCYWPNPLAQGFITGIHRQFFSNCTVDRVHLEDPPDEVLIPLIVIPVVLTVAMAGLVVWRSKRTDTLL
The data set is described as follows: Luciferase assay of amylin (amylin receptor/CRE-luc cell line).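 Also: agonist potency from luminescence of cAMP response element-driven luciferase, EC50 derived from a standard curve of signal versus compound concentration.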 The data set is classed as cell-based. As to conditions: stably transfected amylin receptor/CRE-luc CHO cells (CHO-K1/Gal5/AMY3), 24 hours incubation, luciferase readout.
Excerpt: The objective of this assay is to test the activity or potency of calcitonin analogues or derivatives on human amylin receptors in vitro using a luciferase assay.
Using the standard protocol, CHO-K1/Gal5/AMY3 cells (purchased from GenScript, with the calcitonin receptor and the receptor activity modifying peptide (RAMP) constructed already) were transfected with a plasmid containing a luciferase expression cassette driven by multiple copies of cAMP response elements (CREs). The cells were cultured in an F12 medium containing 200 ug/mL Zeocin, 2 ug/mL puromycin, 100 ug/mL hygromycin, and 400 ug/mL G418 to afford a stably transfected amylin receptor/CRE-luc cell line.
To each well of a white 96-well plate was added 50 µL of the tested sample solution at a respective concentration.
The stably transfected amylin receptor/CRE-luc CHO cells were resuspended in the growth medium at a certain density, and 50 µL of the cell suspension was added at a density of about 20000 cells per well to the white 96-well plate containing the tested sample solution. After incubation of 24 hours at 37°C and 5% CO2, 100 µL of a Luciferase substrate was added to each well, incubated for 3 minutes, and finally was tested for luminescence on SpectraMax L (Molecular Devices) with the software SoftMax Pro 7.0.3 GxP. A standard curve was plotted using the fluorescent intensities for calculation of EC50.

The structures appear in SMILES notation. pEC50: −log10 of the molar value. *1 amine or outer side, *2 acyl side, *3 side chain or, on linkers, in order; H or OH if unused. Where a SMILES comes first, the peptide text is derived from it. The star is where a group is joined. C20 diacid = O=C(O)CCCCCCCCCCCCCCCCCCC(=O)*; C18 diacid = O=C(O)CCCCCCCCCCCCCCCCC(=O)*; γGlu = O=C(O)[C@H](CCC(=O)[*:2])N[*:1]; βAsp = O=C(O)[C@H](CC(=O)[*:2])N[*:1]

For the compound `CC(C)C[C@H](NC(=O)[C@H](CCCNC(=N)N)NC(=O)CNC(=O)[C@H](CC(C)C)NC(=O)[C@@H](NC(=O)[C@H](C)NC(=O)[C@@H](NC(=O)[C@H](CO)NC(=O)[C@H](CC(C)C)NC(=O)[C@H](CCC(N)=O)NC(=O)[C@H](CO)NC(=O)[C@H](C)NC(=O)CC[C@H](NC(=O)CCCCCCCCCCCCCCCCCCC(=O)O)C(=O)O)[C@@H](C)O)C(C)C)C(=O)N[C@@H](CO)C(=O)N[C@@H](CCC(=O)O)C(=O)N[C@@H](CCC(=O)O)C(=O)N[C@@H](CC(C)C)C(=O)N[C@@H](Cc1c[nH]cn1)C(=O)N[C@@H](CCCNC(=N)N)C(=O)N[C@@H](CC(C)C)C(=O)N[C@@H](CCC(N)=O)C(=O)N[C@@H](CC(=O)O)C(=O)N[C@@H](Cc1ccc(O)cc1)C(=O)N1CCC[C@H]1C(=O)N[C@@H](CCCNC(=N)N)C(=O)N[C@H](C(=O)N[C@@H](CC(=O)O)C(=O)N[C@H](C(=O)NCC(=O)N[C@@H](CO)C(=O)NCC(=O)N[C@@H](CO)C(=O)N1CCC[C@H]1C(N)=O)C(C)C)[C@@H](C)O` [M9] ({C20 diacid-γGlu}-ASQLSTAVLGRLSEELHRLQDYPRTDVGSGSP-NH2), in data set [1], the “Effect on reducing food intake” value is “particularly effective” and the “Effect on reducing body weight” value is “particularly effective”. Further, in data set [2] (1 mg/mL, phosphate), the “Changes in characteristics or properties, 0d” value (shortened to “Changes … 0d”) is “Clear” and the “Changes in characteristics or properties, 7d” value (from here on “Changes … 7d”) is “Clear”. Moreover, the “Characteristics or properties on Day 26” value in data set [2] (1 mg/mL, phosphate, Day 26) is “clear solution”. Moreover, in data set [2], the “Concentration change (7d-0d)/%” value is on record as “No change (a decrease of less than 1% from the initial value to the detected content is denoted as "no change")” and the “Purity Change% (7d-0d)” value is “No change (a decrease of less than 1% from the initial value to the detected content is denoted as "no change")”. In data set [3], this compound gave a negative logarithm of the EC50 (pEC50) of 10.77.

Take `CC(C)C[C@H](NC(=O)[C@H](CCCNC(=N)N)NC(=O)CNC(=O)[C@H](CC(C)C)NC(=O)[C@@H](NC(=O)[C@H](C)NC(=O)[C@@H](NC(=O)[C@H](CO)NC(=O)[C@H](CC(C)C)NC(=O)[C@H](CCC(N)=O)NC(=O)[C@H](CO)NC(=O)[C@H](C)NC(=O)CC[C@H](NC(=O)CCCCCCCCCCCCCCCCCCC(=O)O)C(=O)O)[C@@H](C)O)C(C)C)C(=O)N[C@@H](CO)C(=O)N[C@@H](CCC(N)=O)C(=O)N[C@@H](CCC(=O)O)C(=O)N[C@@H](CC(C)C)C(=O)N[C@@H](Cc1c[nH]cn1)C(=O)N[C@@H](CCCNC(=N)N)C(=O)N[C@@H](CC(C)C)C(=O)N[C@@H](CCC(N)=O)C(=O)N[C@@H](CC(=O)O)C(=O)N[C@@H](CC(C)C)C(=O)N1CCC[C@H]1C(=O)N[C@@H](CCCNC(=N)N)C(=O)N[C@H](C(=O)N[C@@H](CC(=O)O)C(=O)N[C@H](C(=O)NCC(=O)N[C@@H](CO)C(=O)NCC(=O)N[C@@H](CO)C(=O)N1CCC[C@H]1C(N)=O)C(C)C)[C@@H](C)O` [M18] ({C20 diacid-γGlu}-ASQLSTAVLGRLSQELHRLQDLPRTDVGSGSP-NH2): in data set [1], the “Effect on reducing food intake” value is given as “particularly effective” and the “Effect on reducing body weight” value was “particularly effective”.

As to `CC(C)C[C@H](NC(=O)[C@H](CCCNC(=N)N)NC(=O)CNC(=O)[C@H](CC(C)C)NC(=O)[C@@H](NC(=O)[C@H](C)NC(=O)[C@@H](NC(=O)[C@H](CO)NC(=O)[C@H](CC(C)C)NC(=O)[C@H](CCC(N)=O)NC(=O)[C@H](CO)NC(=O)[C@H](C)NC(=O)CC[C@H](NC(=O)CCCCCCCCCCCCCCCCCCC(=O)O)C(=O)O)[C@@H](C)O)C(C)C)C(=O)N[C@@H](CO)C(=O)N[C@@H](CCC(N)=O)C(=O)N[C@@H](CCC(=O)O)C(=O)N[C@@H](CC(C)C)C(=O)N[C@@H](Cc1c[nH]cn1)C(=O)N[C@@H](CCCNC(=N)N)C(=O)N[C@@H](CC(C)C)C(=O)N[C@@H](CCC(N)=O)C(=O)N[C@@H](CC(=O)O)C(=O)N[C@@H](Cc1ccc(O)cc1)C(=O)N1CCC[C@H]1C(=O)N[C@@H](CCCNC(=N)N)C(=O)N[C@H](C(=O)N[C@@H](CC(=O)O)C(=O)N[C@H](C(=O)NCC(=O)N[C@@H](C)C(=O)N[C@@H](CCC(=O)O)C(=O)N[C@@H](CO)C(=O)N1CCC[C@H]1C(N)=O)C(C)C)[C@@H](C)O` [M20] ({C20 diacid-γGlu}-ASQLSTAVLGRLSQELHRLQDYPRTDVGAESP-NH2), in data set [1], the “Effect on reducing food intake” value is “prominent effect” and the “Effect on reducing body weight” value is “prominent effect”. The compound further showed a negative-log EC50 (pEC50) in data set [3] of 10.77.

Regarding `CC(C)C[C@H](NC(=O)[C@H](CCCNC(=N)N)NC(=O)CNC(=O)[C@H](CC(C)C)NC(=O)[C@@H](NC(=O)[C@H](C)NC(=O)[C@@H](NC(=O)[C@H](CO)NC(=O)[C@H](CC(C)C)NC(=O)[C@H](CCC(N)=O)NC(=O)[C@H](CO)NC(=O)[C@H](C)NC(=O)C[C@H](NC(=O)CCCCCCCCCCCCCCCCCCC(=O)O)C(=O)O)[C@@H](C)O)C(C)C)C(=O)N[C@@H](CO)C(=O)N[C@@H](CC(=O)O)C(=O)N[C@@H](CCC(=O)O)C(=O)N[C@@H](CC(C)C)C(=O)N[C@@H](Cc1c[nH]cn1)C(=O)N[C@@H](CCCNC(=N)N)C(=O)N[C@@H](CC(C)C)C(=O)N[C@@H](CCC(N)=O)C(=O)N[C@@H](CC(=O)O)C(=O)N[C@@H](Cc1ccc(O)cc1)C(=O)N1CCC[C@H]1C(=O)N[C@@H](CCCNC(=N)N)C(=O)N[C@H](C(=O)N[C@@H](CC(=O)O)C(=O)N[C@H](C(=O)NCC(=O)N[C@@H](CO)C(=O)NCC(=O)N[C@@H](CO)C(=O)N1CCC[C@H]1C(N)=O)C(C)C)[C@@H](C)O` [M43] ({C20 diacid-βAsp}-ASQLSTAVLGRLSDELHRLQDYPRTDVGSGSP-NH2), in data set [2] (1 mg/mL, phosphate), the “Changes … 0d” value is given as “Clear” and the “Changes … 7d” value is given as “Clear”. Besides, in data set [2], the “Concentration change (7d-0d)/%” value is “No change (a decrease of less than 1% from the initial value to the detected content is denoted as "no change")”, the “Purity Change% (7d-0d)” value was “No change (a decrease of less than 1% from the initial value to the detected content is denoted as "no change")” and the “Purity Change% (26d-0d)” value was -1.96%. This compound also showed a pEC50 in data set [3] of 10.77.

For `CC(C)C[C@H](NC(=O)[C@H](CCCNC(=N)N)NC(=O)CNC(=O)[C@H](CC(C)C)NC(=O)[C@@H](NC(=O)[C@H](C)NC(=O)[C@@H](NC(=O)[C@H](CO)NC(=O)[C@H](CC(C)C)NC(=O)[C@H](CCC(N)=O)NC(=O)[C@H](CO)NC(=O)[C@H](C)NC(=O)[C@H](CC(=O)O)NC(=O)CCCCCCCCCCCCCCCCC(=O)O)[C@@H](C)O)C(C)C)C(=O)N[C@@H](CO)C(=O)N[C@@H](CC(=O)O)C(=O)N[C@@H](CCC(=O)O)C(=O)N[C@@H](CC(C)C)C(=O)N[C@@H](Cc1c[nH]cn1)C(=O)N[C@@H](CCCNC(=N)N)C(=O)N[C@@H](CC(C)C)C(=O)N[C@@H](CCC(N)=O)C(=O)N[C@@H](CC(=O)O)C(=O)N[C@@H](Cc1ccc(O)cc1)C(=O)N1CCC[C@H]1C(=O)N[C@@H](CCCNC(=N)N)C(=O)N[C@H](C(=O)N[C@@H](CC(=O)O)C(=O)N[C@H](C(=O)NCC(=O)N[C@@H](CO)C(=O)NCC(=O)N[C@@H](CO)C(=O)N1CCC[C@H]1C(N)=O)C(C)C)[C@@H](C)O` [M44] ({C18 diacid}-DASQLSTAVLGRLSDELHRLQDYPRTDVGSGSP-NH2), in data set [2] (1 mg/mL, phosphate), the “Changes … 0d” value is recorded as “Clear” and the “Changes … 7d” value was “Clear”. In data set [2], the “Concentration change (7d-0d)/%” value is given as -2.285%, the “Purity Change% (7d-0d)” value was -1.15% and the “Purity Change% (26d-0d)” value is listed as -3.76%. Further, the pEC50 in data set [3] is 10.80.

These data come from EP4692114A1, “CALCITONIN ANALOGUE, AND DERIVATIVE THEREOF AND USE THEREOF” (Hangzhou Sciwind Biosciences Co., Ltd., priority 2023, dated 2024).
